What was measured:
Type in all cases: cell-based
[1] = biological target: T1, human TLR7 (Homo sapiens, UniProt Q9NYK1); test: TLR7 inhibition reporter assay (HEK-Blue cells, SEAP reporter, gardiquimod stimulation); conditions: HEK-Blue cells overexpressing human TLR7, SEAP reporter, gardiquimod 7.5 μM; read-out: TLR7 IC50
T1 construct: host or cells: HEK-Blue cells
T1 sequence (Q9NYK1 27-1049): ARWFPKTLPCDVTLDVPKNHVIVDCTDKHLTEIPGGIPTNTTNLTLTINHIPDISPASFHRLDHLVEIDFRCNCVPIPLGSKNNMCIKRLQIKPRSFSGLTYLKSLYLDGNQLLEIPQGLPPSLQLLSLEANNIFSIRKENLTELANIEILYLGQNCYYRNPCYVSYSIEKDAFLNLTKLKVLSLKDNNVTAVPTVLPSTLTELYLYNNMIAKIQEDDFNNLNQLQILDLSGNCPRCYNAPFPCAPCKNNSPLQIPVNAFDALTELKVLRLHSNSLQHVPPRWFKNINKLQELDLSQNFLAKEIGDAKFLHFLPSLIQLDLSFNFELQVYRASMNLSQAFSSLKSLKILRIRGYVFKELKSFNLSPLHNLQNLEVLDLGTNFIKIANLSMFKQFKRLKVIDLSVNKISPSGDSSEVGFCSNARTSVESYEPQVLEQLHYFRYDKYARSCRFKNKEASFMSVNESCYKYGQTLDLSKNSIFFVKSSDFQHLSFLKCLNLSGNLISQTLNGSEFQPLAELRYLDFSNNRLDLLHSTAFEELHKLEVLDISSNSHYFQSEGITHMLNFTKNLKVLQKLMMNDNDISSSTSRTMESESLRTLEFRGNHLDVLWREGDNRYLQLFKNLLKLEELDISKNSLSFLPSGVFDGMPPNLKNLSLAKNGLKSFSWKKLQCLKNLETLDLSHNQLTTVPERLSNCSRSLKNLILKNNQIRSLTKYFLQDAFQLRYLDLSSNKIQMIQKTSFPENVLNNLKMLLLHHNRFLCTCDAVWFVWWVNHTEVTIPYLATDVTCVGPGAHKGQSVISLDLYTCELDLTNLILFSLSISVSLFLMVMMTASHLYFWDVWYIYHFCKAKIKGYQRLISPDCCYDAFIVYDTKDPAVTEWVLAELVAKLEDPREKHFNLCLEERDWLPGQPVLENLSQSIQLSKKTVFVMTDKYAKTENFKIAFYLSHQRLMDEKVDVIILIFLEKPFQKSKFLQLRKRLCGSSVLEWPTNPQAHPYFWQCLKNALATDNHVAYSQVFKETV
In short: (§1)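 Dose–response from 0.05 nM to 50 μM was run in HEK-Blue human TLR7, TLR8 and TLR9 reporter cells. After 30 min at room temperature with compound, ligand was added (TLR7 gardiquimod 7.5 μM; TLR8 R848 15.9 μM; TLR9 ODN2006 5 nM) and SEAP measured next day, at 22 h.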

[2] = biological target: T2, human TLR8 (Homo sapiens, UniProt Q9NR97); test: TLR8 inhibition reporter assay (HEK-Blue cells, SEAP reporter, R848 stimulation); conditions: HEK-Blue cells overexpressing human TLR8, SEAP reporter, R848 15.9 μM; read-out: TLR8 IC50
T2 construct: host or cells: HEK-Blue cells
T2 sequence (Q9NR97 27-1041): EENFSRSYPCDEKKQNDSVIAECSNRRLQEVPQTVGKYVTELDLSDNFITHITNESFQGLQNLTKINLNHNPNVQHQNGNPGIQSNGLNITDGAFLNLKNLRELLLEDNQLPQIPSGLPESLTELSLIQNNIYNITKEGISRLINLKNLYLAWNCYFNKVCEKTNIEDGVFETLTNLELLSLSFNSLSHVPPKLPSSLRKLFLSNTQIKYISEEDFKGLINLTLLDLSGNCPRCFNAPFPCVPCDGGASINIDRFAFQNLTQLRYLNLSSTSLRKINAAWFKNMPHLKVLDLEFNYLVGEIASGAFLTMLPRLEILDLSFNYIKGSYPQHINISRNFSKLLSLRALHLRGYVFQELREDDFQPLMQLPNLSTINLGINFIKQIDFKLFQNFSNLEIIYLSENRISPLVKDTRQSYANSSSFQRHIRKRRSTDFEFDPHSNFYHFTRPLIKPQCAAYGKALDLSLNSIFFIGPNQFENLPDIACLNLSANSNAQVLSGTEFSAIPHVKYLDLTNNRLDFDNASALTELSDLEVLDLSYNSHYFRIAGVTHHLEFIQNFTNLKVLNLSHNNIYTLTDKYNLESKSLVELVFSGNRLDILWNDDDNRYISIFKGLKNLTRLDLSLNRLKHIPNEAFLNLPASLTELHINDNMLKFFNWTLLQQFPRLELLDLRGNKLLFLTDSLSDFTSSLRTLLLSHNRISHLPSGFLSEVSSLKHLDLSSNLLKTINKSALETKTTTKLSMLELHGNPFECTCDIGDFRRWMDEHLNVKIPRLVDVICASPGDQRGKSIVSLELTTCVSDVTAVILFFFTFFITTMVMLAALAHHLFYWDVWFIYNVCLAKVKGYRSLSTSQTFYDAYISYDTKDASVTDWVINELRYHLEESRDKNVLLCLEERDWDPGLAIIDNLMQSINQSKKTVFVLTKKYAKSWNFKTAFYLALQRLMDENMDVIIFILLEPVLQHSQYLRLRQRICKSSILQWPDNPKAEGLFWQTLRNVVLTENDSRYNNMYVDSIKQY
In short: as §1

[3] = biological target: T3, human TLR9 (Homo sapiens, UniProt Q9NR96); test: TLR9 inhibition reporter assay (HEK-Blue cells, SEAP reporter, ODN2006 stimulation); conditions: HEK-Blue cells overexpressing human TLR9, SEAP reporter, ODN2006 5 nM
T3 construct: host or cells: HEK-Blue cells
T3 sequence (Q9NR96 26-1032): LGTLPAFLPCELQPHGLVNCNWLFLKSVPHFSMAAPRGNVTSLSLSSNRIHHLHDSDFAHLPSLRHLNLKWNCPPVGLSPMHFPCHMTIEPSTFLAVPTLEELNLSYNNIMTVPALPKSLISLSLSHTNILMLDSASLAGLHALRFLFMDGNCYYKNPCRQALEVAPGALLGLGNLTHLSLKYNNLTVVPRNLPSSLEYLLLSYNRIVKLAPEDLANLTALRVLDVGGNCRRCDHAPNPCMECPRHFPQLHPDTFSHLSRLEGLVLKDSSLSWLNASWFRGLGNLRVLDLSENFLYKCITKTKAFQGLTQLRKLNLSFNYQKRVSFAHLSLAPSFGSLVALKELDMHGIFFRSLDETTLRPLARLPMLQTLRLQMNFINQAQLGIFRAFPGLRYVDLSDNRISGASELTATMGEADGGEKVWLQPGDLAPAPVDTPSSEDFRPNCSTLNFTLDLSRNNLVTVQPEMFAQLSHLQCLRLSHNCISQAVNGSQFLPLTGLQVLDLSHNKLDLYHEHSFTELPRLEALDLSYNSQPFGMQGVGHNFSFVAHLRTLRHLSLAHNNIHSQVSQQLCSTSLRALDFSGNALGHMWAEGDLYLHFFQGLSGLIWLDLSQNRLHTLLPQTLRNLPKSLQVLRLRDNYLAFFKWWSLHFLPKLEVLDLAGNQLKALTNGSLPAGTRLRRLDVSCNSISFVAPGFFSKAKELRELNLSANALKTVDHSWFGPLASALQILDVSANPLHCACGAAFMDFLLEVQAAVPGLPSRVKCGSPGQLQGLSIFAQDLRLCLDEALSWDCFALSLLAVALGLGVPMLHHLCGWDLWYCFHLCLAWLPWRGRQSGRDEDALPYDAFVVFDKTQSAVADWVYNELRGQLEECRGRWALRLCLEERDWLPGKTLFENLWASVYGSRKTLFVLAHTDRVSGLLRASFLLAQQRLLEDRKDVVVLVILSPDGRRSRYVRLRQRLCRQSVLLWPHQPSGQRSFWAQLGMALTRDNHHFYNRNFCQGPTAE
In short: as §1

SMILES | IC50 [1] | IC50 [2] | IC50 [3]
COc1cc(-c2[nH]c3sc(C4CCC(NC(=O)CN(C)C)CC4)nc3c2C(C)C)cn2ncnc12 (stereo not drawn) [Example 126, 2-(dimethylamino)-N-(4-(6-isopropyl-5-(8-methoxy-[1,2,4]triazolo[1,5-a]pyridin-6-yl)-4H-pyrrolo[3,2-d]thiazol-2-yl)cyclohexyl)acetamide] | 0.98 nM | 6.83 nM | 13200 nM
COc1cc(-c2[nH]c3sc(C4CCC(NS(C)(=O)=O)CC4)nc3c2C(C)C)cn2ncnc12 (stereo not drawn) [Example 127, N-(4-(6-isopropyl-5-(8-methoxy-[1,2,4]triazolo[1,5-a]pyridin-6-yl)-4H-pyrrolo[3,2-d]thiazol-2-yl)cyclohexyl)methanesulfonamide] | 1.99 nM | 178 nM | > 50000 nM
CCN(C)CC(=O)N[C@H]1CC[C@H](c2nc3c(C(C)C)c(-c4cc(OC)c5ncnn5c4)[nH]c3s2)CC1 [Example 128, Trans 2-(ethyl(methyl)amino)-N-(4-(6-isopropyl-5-(8-methoxy-[1,2,4]triazolo[1,5-a]pyridin-6-yl)-4H-pyrrolo[3,2-d]thiazol-2-yl)cyclohexyl)acetamide] | 1.21 nM | 8.29 nM | 13400 nM
COc1cc(-c2[nH]c3sc(C4CCC(NC(=O)CNCC(C)C)CC4)nc3c2C(C)C)cn2ncnc12 (stereo not drawn) [Example 129, 2-(isobutylamino)-N-(4-(6-isopropyl-5-(8-methoxy-[1,2,4]triazolo[1,5-a]pyridin-6-yl)-4H-pyrrolo[3,2-d]thiazol-2-yl)cyclohexyl)acetamide] | 1.34 nM | 7.36 nM | 14400 nM
Cc1c(-c2[nH]c3sc(C4CCC(NCC(N)=O)CC4)nc3c2C(C)C)cn2ncnc2c1C (stereo not drawn) [Example 210, 2-((4-(5-(7,8-dimethyl-[1,2,4]triazolo[1,5-a]pyridin-6-yl)-6-isopropyl-4H-pyrrolo[3,2-d]thiazol-2-yl)cyclohexyl)amino)acetamide] | 1.8 nM | 1.24 nM | 23800 nM
Cc1c(-c2[nH]c3sc(C4CCC(NCC(N)=O)CC4)nc3c2C(C)C)cn2ncnc2c1C (stereo not drawn) [Example 211, 2-((4-(5-(7,8-dimethyl-[1,2,4]triazolo[1,5-a]pyridin-6-yl)-6-isopropyl-4H-pyrrolo[3,2-d]thiazol-2-yl)cyclohexyl)amino)acetamide] | 0.79 nM | 0.58 nM | 14300 nM
Cc1c(-c2[nH]c3sc(N4CCNCC4)nc3c2C(C)C)cn2ncnc2c1C [Example 278, 5-(7,8-dimethyl-[1,2,4]triazolo[1,5-a]pyridin-6-yl)-6-isopropyl-2-(piperazin-1-yl)-4H-pyrrolo[3,2-d]thiazole] | 1.43 nM | 0.33 nM | 10800 nM
Cc1c(-c2[nH]c3sc(N4CCNCC4)nc3c2C(C)C)cn(C)c(=O)c1C [Example 279, 5-(6-isopropyl-2-(piperazin-1-yl)-4H-pyrrolo[3,2-d]thiazol-5-yl)-1,3,4-trimethylpyridin-2(1H)-one] | 11 nM | 1.08 nM | 23900 nM
Cc1c(-c2[nH]c3sc(N4CCN(C(=O)CN(C)C)CC4)nc3c2C(C)C)cn2ncnc2c1C [Example 280, 1-(4-(5-(7,8-dimethyl-[1,2,4]triazolo[1,5-a]pyridin-6-yl)-6-isopropyl-4H-pyrrolo[3,2-d]thiazol-2-yl)piperazin-1-yl)-2-(dimethylamino)ethan-1-one] | 1.26 nM | 0.73 nM | 4960 nM
Cc1c(-c2[nH]c3sc(N4CCN(CC(C)(C)O)CC4)nc3c2C(C)C)cn2ncnc2c1C [Example 281, 1-(4-(5-(7,8-dimethyl-[1,2,4]triazolo[1,5-a]pyridin-6-yl)-6-isopropyl-4H-pyrrolo[3,2-d]thiazol-2-yl)piperazin-1-yl)-2-methylpropan-2-ol] | 9.49 nM | 0.45 nM | 42600 nM
Cc1c(-c2[nH]c3sc(N4CCN(C5CCOCC5)CC4)nc3c2C(C)C)cn2ncnc2c1C [Example 287, 5-(7,8-dimethyl-[1,2,4]triazolo[1,5-a]pyridin-6-yl)-6-isopropyl-2-(4-(tetrahydro-2H-pyran-4-yl)piperazin-1-yl)-4H-pyrrolo[3,2-d]thiazole] | 13.3 nM | 0.54 nM | 29200 nM
Cc1c(-c2[nH]c3sc(N4CCN(C(C)C)CC4)nc3c2C(C)C)cn2ncnc2c1C [Example 288, 5-(7,8-dimethyl-[1,2,4]triazolo[1,5-a]pyridin-6-yl)-6-isopropyl-2-(4-isopropylpiperazin-1-yl)-4H-pyrrolo[3,2-d]thiazole] | 15.2 nM | 0.52 nM | 14200 nM
Cc1c(-c2[nH]c3sc(N4CCN(CC5(C)COC5)CC4)nc3c2C(C)C)cn2ncnc2c1C [Example 289, 5-(7,8-dimethyl-[1,2,4]triazolo[1,5-a]pyridin-6-yl)-6-isopropyl-2-(4-((3-methyloxetan-3-yl)methyl)piperazin-1-yl)-4H-pyrrolo[3,2-d]thiazole] | 5.19 nM | 0.97 nM | 19700 nM

From patent publication US20230139171A1 (SITA Information Networking Computing UK Limited, priority 2019, published 2023)
